This is an account of results in publication PMC9604868, “Evaluation of Possible Antioxidant, Anti-Hyperglycaemic, Anti-Alzheimer and Anti-Inflammatory Effects of Teucrium polium Aerial Parts (Lamiaceae)” (Life, 2022).

Assay [1] concerns carrageenan-induced paw edema. As to the kind of experiment: Carrageenan-induced hind paw edema. Particulars: mice, gavage, extract 10% 0.5 mL or diclofenac 10 mg/kg; for % Oedema Reduction: versus control. On the technique in general: The carrageenan paw model is a standard test of acute inflammation.
A short description of assay [2]: DPPH radical scavenging assay. The note with it: means ± SD (n = 3). The procedure: (§1) The antioxidant activity of T. polium L. hydroalcoholic extract was achieved using several analytical tests distinguished by their mechanism of reaction 2-diphenyl-1-picrylhydrazyl (DPPH), β-carotene and galvinoxyl radical (GOR). The reaction was initiated by mixing 0.5 mL of hydroalcoholic extract with 1 mL of DPPH (0.2 mM), β-carotene (0.5 mM) and GOR (0.1 mM) using the protocols described in references. The mixtures were left in the dark at room temperature for approximately 30 min; after that, the absorbance was measured at λmax: […], 490 and 428 nm for the mentioned tests, respectively, against a blank using a UV-vis spectrophotometer apparatus (Shimadzu UV-2450, Japan). The inhibition percentage was calculated as follows: I% = ((A0 − A1)/A0) × 100, where A0 is the absorbance of DPPH, β-carotene and GOR solutions without extracts, while A1 were the absorbance of the sample. The activity results for all tests were expressed as IC50 (half maximal inhibitory concentration) values, which have been calculated (using Microsoft Excel 2016) from an antiradical linear graph formed by the X axis, which represented extract concentration, and the Y axis, which represented their relative inhibition percentage. In addition, the antioxidant activity results were compared with three standards, BHA, BHT and vitamin, as represented in Table 1.
On the technique in general: Loss of DPPH colour is used to gauge radical scavenging.

A further assay can be described thus: β-carotene assay. The note with it: means ± SD (n = 3). The procedure:
as §1

Another assay deals with rat renal medulla COX. Set-up: method as in PMID 33802084. Particulars: cited from earlier work.

Consider `O=C(O)Cc1ccccc1Nc1c(Cl)cccc1Cl` [Diclofenac sodium], for which the “% Oedema” value in assay [1] (4 h after carrageenan) is 20.42%. The “Average Paw Weight (g) Left” value in assay [1] (carrageenan-injected paw, 4 h) turned out to be 0.171 ± 0.009 g. For the same compound, the “Average Paw Weight (g) Right” value in assay [1] (uninjected paw, 4 h) was 0.142 ± 0.001 g. Moreover, the “% Oedema Reduction” value in assay [1] (4 h after carrageenan) was 52.97%; in assay [1] (4 h after carrageenan, listed as diclofenac sodium), 52.97%.
As for `Cc1c(C)c2c(c(C)c1O)CC[C@@](C)(CCC[C@H](C)CCC[C@H](C)CCCC(C)C)O2` [Vitamin E, α-Tocopherol], in assay [2], the “DPPH IC50” value was 15.81 ± 0.54 µg/mL.
For the compound `COc1ccc(O)c(C(C)(C)C)c1` [BHA, butylated hydroxyanisole], the “DPPH IC50” value in assay [2] stood at 6.14 ± 0.41 µg/mL. Further, the “β Carotene IC50” value in “β-carotene assay” is 1.05 ± 0.03 µg/mL.
In the case of `O=c1cc(-c2ccc(O)c(O)c2)oc2cc(O)cc(O)c12` [Luteolin (7), luteolin], the IC50 – broadly, the concentration needed to halve the response being measured – in the assay on rat renal medulla COX was 100 to 130 µM.
Turning to `Cc1cc(C(C)(C)C)c(O)c(C(C)(C)C)c1` [BHT, 2,6-ditert-butyl-4-methylphenol], the “DPPH IC50” value in assay [2] was 12.99 ± 0.41 µg/mL. Also, the “β Carotene IC50” value in the assay “β-carotene assay” came out at 0.91 ± 0.01 µg/mL.
